From PMC5385491, “Antiviral activity of chlorogenic acid against influenza A (H1N1/H3N2) virus and its inhibition of neuraminidase” (Scientific Reports, 2017)

Molecular target: T1, NA of influenza A/PuertoRico/8/1934 (H1N1) virus (Influenza A virus (A/Puerto Rico/8/1934(H1N1)), UniProt P03468)
T1 construct: native viral NA in allantoic fluid of infected embryonated chicken eggs (whole virus, not purified)
Assay: fluorescence NA inhibition assay with MU-NANA
Assay type: biochemical
Conditions: MU-NANA substrate (30 μl of 80 μM in 100 μl); 10 min preincubation, 30 min reaction, 37 °C; virus-containing allantoic fluid

T1 sequence (P03468 whole entry): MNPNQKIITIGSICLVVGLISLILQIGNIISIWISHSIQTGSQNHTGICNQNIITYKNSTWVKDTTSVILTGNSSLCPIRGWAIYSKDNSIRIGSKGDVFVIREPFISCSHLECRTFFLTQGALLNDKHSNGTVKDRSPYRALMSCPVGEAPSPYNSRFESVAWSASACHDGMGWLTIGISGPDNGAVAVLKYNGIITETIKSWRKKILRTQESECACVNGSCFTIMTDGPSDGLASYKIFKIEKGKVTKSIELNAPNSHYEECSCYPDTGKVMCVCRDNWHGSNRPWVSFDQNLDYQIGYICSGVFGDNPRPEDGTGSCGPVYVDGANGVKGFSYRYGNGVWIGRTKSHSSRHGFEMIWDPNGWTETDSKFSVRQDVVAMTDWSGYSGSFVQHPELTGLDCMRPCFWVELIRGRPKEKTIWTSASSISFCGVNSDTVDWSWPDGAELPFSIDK

For O=C(/C=C/c1ccc(O)c(O)c1)O[C@@H]1C[C@](O)(C(=O)O)C[C@@H](O)[C@H]1O [CHA, chlorogenic acid], the IC50 was 22.1 ± 1.07 µM.
